Measured values as given in patent US5602167A, “4-arylcyclohepta[c] pyrrole analgesics” (Ortho Pharmaceutical Corporation, priority 1995, dated 1997).

experiment: Mouse Acetylcholine Bromide-Induced Abdominal Constriction Assay; assay type: in vivo; conditions: 30 mg/kg po, 30 min before 5.5 mg/kg i.p. acetylcholine bromide, % analgesia

Compound	% Inhibition at 30 mg/kg (route) [%]
COc1cccc([C@@]2(O)CCCC[C@@H]3CN(C)C[C@@H]32)c1 (relative stereo) [Cp-2]	80
CN1C[C@H]2CCCC[C@H](c3ccc(F)cc3)[C@H]2C1 (relative stereo) [Cp-6]	93
CN1C[C@H]2CCCC[C@](O)(c3ccccc3)[C@H]2C1 (relative stereo) [Cp-1]	93
CN1C[C@H]2CCCC[C@H](c3ccccc3)[C@H]2C1 (relative stereo) [Cp-4]	80
CN1C[C@H]2CCCC[C@@H](c3ccc(F)cc3)[C@H]2C1 (relative stereo) [Cp-7]	100
CN1C[C@H]2CCCC[C@@H](c3ccccc3)[C@H]2C1 (relative stereo) [Cp-5]	100
CN1C[C@H]2CCCC[C@](O)(c3ccc(F)cc3)[C@H]2C1 (relative stereo) [Cp-3]	100

same assay, conditions: 30 mg/kg sc, 5.5 mg/kg i.p. acetylcholine bromide, % analgesia

Compound	% Inhibition at 30 mg/kg (route) [%]
COc1cccc([C@H]2CCCC[C@@H]3CN(C)C[C@@H]32)c1 (relative stereo) [Cp-8]	100
COc1cccc([C@@H]2CCCC[C@@H]3CN(C)C[C@@H]32)c1 (relative stereo) [Cp-9]	90
